Assay results published in patent US7173129B2, “Sulfonamide-substituted chalcone derivatives and their use to treat diseases” (Athero Genics, Inc., priority 2003, dated 2007).

Columns and labels:
VCAM-1 = experiment: In Vitro VCAM-1 Assay (TNF-α stimulated endothelial cells, cell-surface ELISA); format: cell-based; details: Endothelial cell, primary human aortic (HAEC) or pulmonary (HPAEC) endothelial cells, TNF-α 1 ng/ml, approximately 16 hours, ELISA OD 450 nm
Procedure: Cell Culture and compound dosing: Cultured primary human aortic (HAEC) or pulmonary (HPAEC) endothelial cells were obtained from Clonetics, Inc., and were used below passage 9. Cells were seeded in 96 well plates such that they would reach 90–95% confluency by the following day. On the following day the cells were stimulated with TNF-α (1 ng/ml) in the presence or absence of compounds dissolved in DMSO such that the final concentration of DMSO is 0.25% or less. To establish a dose curve for each compound, four concentrations in 2- to 5-fold increments were used. Cells were exposed to TNF-α and compounds for approximately 16 hours. The next day the cells were examined under microscope to score for visual signs of toxicity or cell stress.
Following 16 hr exposure to TNF-α and compound the media was discarded and the cells were washed once with Hanks Balanced Salt Solution (HBSS)/Phosphate buffered saline (PBS) (1:1). Primary antibodies against VCAM-1 (0.25 μg/ml in HBSS/PBS+5% FBS) were added and incubated for 30–60 minutes at 37° C. Cells were washed with HBSS/PBS three times, and secondary antibody Horse Radish Peroxidase (HRP)-conjugated goat anti-mouse IgG (1:500 in HBSS/PBS+5% FBS) were added and incubated for 30 minutes at 37° C. Cells were washed with HBSS/PBS four time and TMB substrate were added and incubated at room temperature in the dark until there was adequate development of blue color. The length of time of incubation was typically 5–15 minutes. 2N sulfuric acid was added to stop the color development and the data was collected by reading the absorbance on a BioRad ELISA plate reader at OD 450 nm. The results are expressed as IC50 values (the concentration (micromolar) of compound required to inhibit 50% of the maximal response of the control sample stimulated by TNF-α only).

Row | Compound | IC50 (VCAM-1; Homo sapiens, 16 h) [µM] | melting point | IC50 (VCAM-1) [µM]
1 | CONS(=O)(=O)c1ccc(C(=O)/C=C/c2cc(-c3cc4ccccc4n3C)c(OC)cc2OC)cc1 [Example 30, 4-{3E-[2,4-Dimethoxy-5-(1-methyl-1H-indol-2-yl)phenyl]acryloyl}-N-methoxybenzenesulfonamide] | < 10 | 214 to 216 °C | 
2 | COc1cc(OC)c(-c2cccs2)cc1/C=C/C(=O)c1ccc(S(=O)(=O)NCC(F)(F)F)cc1 [Example 24, 4-[3E-(2,4-Dimethoxy-5-thien-2-ylphenyl)acryloyl]-N-(2,2,2-trifluoroethyl)benzenesulfonamide] | < 5 | 167 to 168 °C | 
3 | COc1cc(OC)c(-c2cccs2)cc1/C=C/C(=O)c1ccc(S(=O)(=O)NCCN2CCOCC2)cc1 [Example 20, 4-[3E-(2,4-Dimethoxy-5-thien-2-ylphenyl)acryloyl]-N-(2-morpholin-4-yl-ethyl)benzenesulfonamide] | < 5 | 171 to 172 °C | 
4 | COc1cc(OC)c(-c2cccn2C)cc1/C=C/C(=O)c1ccc(S(=O)(=O)Nc2cc(C)on2)cc1 [Example 44, 4-{3E-[2,4-Dimethoxy-5-(1-methyl-1H-pyrrol-2-yl)phenyl]acryloyl}-N-(5-methyl-isoxazol-3-yl)benzenesulfonamide] | < 5 | 113 to 115 °C | 
5 | COc1cc(OC)c(-c2cccs2)cc1/C=C/C(=O)c1ccc(S(=O)(=O)NCC(=O)O)cc1 [Example 26, {4-[3E-(2,4-Dimethoxy-5-thien-2-ylphenyl)acryloyl]benzenesulfonylamino}acetic acid] | > 10 | 100 to 101 °C | 
6 | CCCC(=O)NS(=O)(=O)c1ccc(C(=O)/C=C/c2cc(-c3cc4ccccc4n3C)c(OC)cc2OC)cc1 [Example 37, N-Butyryl-4-{3E-[2,4-dimethoxy-5-(1-methyl-1H-indol-2-yl)phenyl]acryloyl}benzenesulfonamide] | < 5 | 144 to 146 °C | 
7 | COc1cc(OC)c(-c2cc3ccccc3[nH]2)cc1/C=C/C(=O)c1ccc(S(=O)(=O)N(C)C)cc1 [Example 32, 4-{3E-[5-(1H-Indol-2-yl)-2,4-dimethoxyphenyl]acryloyl}-N,N-dimethylbenzenesulfonamide] | < 5 | 158 to 162 °C | 
8 | COc1cc(OC)c(-c2cc3ccccc3n2C)cc1/C=C/C(=O)c1ccc(S(=O)(=O)NO[Si](C)(C)C(C)(C)C)cc1 [Example 33, 4-{3E-[2,4-Dimethoxy-5-(1-methyl-1H-indol-2-yl)phenyl]acryloyl}-N-(tert-butyldimethylsiloxy)benzenesulfonamide] |  | 129 to 131 °C | > 10
9 | COc1cc(OC)c(-c2cccs2)cc1/C=C/C(=O)c1ccc(S(=O)(=O)Nc2ccccn2)cc1 [Example 5, 4-[3E-(2,4-Dimethoxy-5-thien-2-ylphenyl)acryloyl]-N-pyridin-2-ylbenzenesulfonamide] | < 5 | 141 to 143 °C | 
10 | CNS(=O)(=O)c1ccc(C(=O)/C=C/c2cc(-c3cc4ccccc4n3C)c(OC)cc2OC)cc1 [Example 29, 4-{3E-[2,4-Dimethoxy-5-(1-methyl-1H-indol-2-yl)phenyl]acryloyl}-N-methyl-benzenesulfonamide] | < 5 | 129 to 131 °C | 
11 | COc1cc(OC)c(-c2cccs2)cc1/C=C/C(=O)c1ccc(S(=O)(=O)Nc2ccc(F)cn2)cc1 [Example 11, 4-[3E-(2,4-Dimethoxy-5-thien-2-ylphenyl)acryloyl]-N-(5-fluoropyridin-2-yl)benzenesulfonamide] | < 5 | 194 to 195 °C | 
12 | COc1cc(OC)c(-c2cccs2)cc1/C=C/C(=O)c1ccc(S(=O)(=O)NCc2cccnc2)cc1 [Example 19, 4-[3E-(2,4-Dimethoxy-5-thien-2-ylphenyl)acryloyl]-N-pyridin-3-ylmethylbenzenesulfonamide] | < 5 | 167 to 168 °C | 
13 | COc1cc(OC)c(-c2cc3ccccc3n2C)cc1/C=C/C(=O)c1ccc(S(=O)(=O)NO)cc1 [Example 34, 4-{3E-[2,4-Dimethoxy-5-(1-methyl-1H-indol-2-yl)phenyl]acryloyl}-N-hydroxybenzenesulfonamide] | > 10 | > 260 °C | 
14 | COc1cc(OC)c(-c2cc3ccccc3n2C)cc1/C=C/C(=O)c1ccc(S(=O)(=O)NCCN2CCOCC2)cc1 [Example 18, 4-{3E-[2,4-Dimethoxy-5-(1-methyl-1H-indol-2-yl)phenyl]acryloyl}-N-(2-morpholin-4-yl-ethyl)benzenesulfonamide] | < 10 | 167 to 168 °C | 
15 | COc1cc(OC)c(-c2cccs2)cc1/C=C/C(=O)c1ccc(S(=O)(=O)NC(C)(C)C(=O)O)cc1 [Example 27, 2-{4-[3E-(2,4-Dimethoxy-5-thien-2-yl-phenyl)acryloyl]benzenesulfonylamino}-2-methylpropionic acid] | < 10 | 205 °C (dec.) | 
16 | COc1cc(OC)c(-c2cccs2)cc1/C=C/C(=O)c1ccc(S(=O)(=O)NN2CCCCC2)cc1 [Example 22, 4-[3E-(2,4-Dimethoxy-5-thien-2-ylphenyl)acryloyl]-N-piperidin-1-ylbenzenesulfonamide] | > 10 | 174 to 176 °C | 
17 | COc1cc(OC)c(-c2cccs2)cc1/C=C/C(=O)c1ccc(S(=O)(=O)Nc2cc(C)on2)cc1 [Example 1, 4-[3E-(2,4-Dimethoxy-5-thien-2-yl-phenyl)acryloyl]-N-(5-methylisoxazol-3-yl)benzenesulfonamide] | < 5 | 202 to 203 °C | 
18 | COc1cc(OCCN2CCOCC2)c(/C=C/C(=O)c2ccc(S(=O)(=O)Nc3cc(C)on3)cc2)cc1-c1cccs1.Cl [Example 14, 4-{3E-[4-Methoxy-2-(2-morpholin-4-yl-ethoxy)-5-thien-2-ylphenyl]acryloyl}-N-(5-methyl-isoxazol-3-yl)benzenesulfonamide hydrochloride] | < 5 | > 260 °C | 
19 | COc1cc(OC)c(N2CCCC2)cc1/C=C/C(=O)c1ccc(S(=O)(=O)NCc2ccccn2)cc1 [Example 53, 4-[3E-(2,4-Dimethoxy-5-pyrrolidin-1-ylphenyl)acryloyl]-N-pyridin-2-ylmethylbenzenesulfonamide] | < 5 | 112 to 116 °C | 
20 | COc1cc(OC)c(-c2cccs2)cc1/C=C/C(=O)c1ccc(S(=O)(=O)Nc2ccc(C(F)(F)F)cn2)cc1 [Example 12, 4-[3E-(2,4-Dimethoxy-5-thien-2-ylphenyl)acryloyl]-N-(5-trifluoromethylpyridin-2-yl)benzenesulfonamide] | < 10 | 228 to 229 °C | 
21 | COc1cc(OC)c(-c2cc3ccccc3[nH]2)cc1/C=C/C(=O)c1ccc(S(=O)(=O)Nc2ccccn2)cc1 [Example 57, 4-{3E-[5-(1H-Indol-2-yl)-2,4-dimethoxyphenyl]acryloyl}-N-pyridin-2-ylbenzenesulfonamide] | < 5 | 206 to 208 °C | 
22 | COc1cc(OC)c(N2CCCC2)cc1/C=C/C(=O)c1ccc(S(=O)(=O)NCCCn2ccnc2)cc1 [Example 54, 4-[3E-(2,4-Dimethoxy-5-pyrrolidin-1-ylphenyl)acryloyl]-N-(3-imidazol-1-ylpropyl)benzenesulfonamide] | > 5 | 140 to 143 °C | 
